Experimental data reported in ChEMBL document CHEMBL1148013, “Synthesis, biological evaluation and molecular modeling studies of arylidene-thiazolidinediones with potential hypoglycemic and hypolipidemic activities” (2007).

Experiments:
Format in all cases: functional
Design in all cases: scale not given: the % may be the effect or the level left
[1] = test system: Mus musculus; experiment: Reduction in plasma glucose level in alloxan-induced diabetic mouse at 5 mg/kg/day, po after 15 days relative to control
[2] = test system: Mus musculus; experiment: Reduction in plasma triglyceride level in alloxan-induced diabetic mouse at 5 mg/kg/day, po after 15 days relative to control
[3] = test system: Mus musculus; experiment: Reduction in plasma triglyceride level in alloxan-induced diabetic mouse at 30 mg/kg/day, po after 15 days relative to control
[4] = test system: Mus musculus; experiment: Reduction in plasma glucose level in alloxan-induced diabetic mouse at 10 mg/kg/day, po after 15 days relative to control
[5] = test system: Mus musculus; experiment: Reduction in plasma glucose level in alloxan-induced diabetic mouse at 30 mg/kg/day, po after 15 days relative to control
[6] = test system: Mus musculus; experiment: Reduction in plasma triglyceride level in alloxan-induced diabetic mouse at 10 mg/kg/day, po after 15 days relative to control
[7] = test system: Mus musculus; experiment: Reduction in plasma glucose level in alloxan-induced diabetic mouse at 40 mg/kg/day, po after 15 days relative to control
[8] = test system: Mus musculus; experiment: Reduction in plasma triglyceride level in alloxan-induced diabetic mouse at 20 mg/kg/day, po after 15 days relative to control
[9] = test system: Mus musculus; experiment: Reduction in plasma glucose level in alloxan-induced diabetic mouse at 20 mg/kg/day, po after 15 days relative to control
[10] = test system: Mus musculus; experiment: Reduction in plasma triglyceride level in alloxan-induced diabetic mouse at 40 mg/kg/day, po after 15 days relative to control

Row | SMILES | Activity [1] [%] | Activity [2] [%] | Activity [3] [%] | Activity [4] [%] | Activity [5] [%] | Activity [6] [%] | Activity [7] [%] | Activity [8] [%] | Activity [9] [%] | Activity [10] [%]
1 | COc1ccc(/C=C2\SC(=O)N(Cc3ccc(C)cc3)C2=O)cc1 | 27.2 | 32.2 | 58.8 | 20.6 | 50.8 | 37.6 |  |  |  | 
2 | COc1ccc(/C=C2\SC(=O)N(Cc3ccc(C)cc3)C2=O)c(OC)c1 |  |  | 46.5 | 21.8 | 34.6 | 40 | 20.1 |  |  | 
3 | Cc1ccc(CN2C(=O)S/C(=C\c3ccc(O)cc3)C2=O)cc1 |  |  |  | 19.9 | 37.3 |  | 37.2 |  |  | 
4 | Cc1ccc(CN2C(=O)S/C(=C\c3ccc(F)cc3)C2=O)cc1 |  |  |  |  | 13.5 |  |  |  |  | 
5 | Cc1ccc(CN2C(=O)S/C(=C\c3ccccc3Cl)C2=O)cc1 |  |  | 26 | 19.2 | 43.3 | 14.8 |  | 20 | 47 | 
6 | Cc1ccc(CN2C(=O)S/C(=C\c3cccc(Br)c3)C2=O)cc1 |  |  |  | 21.3 |  | 17.6 |  |  |  | 
7 | Cc1ccc(CN2C(=O)S/C(=C\c3ccc(N(C)C)cc3)C2=O)cc1 |  |  | 44.1 | 14.9 | 40.8 |  |  | 17.4 | 35.8 | 
8 | Cc1ccc(CN2C(=O)S/C(=C\c3ccc(Cl)cc3)C2=O)cc1 |  |  | 48 | 18.7 | 22.8 |  | 31.5 |  |  | 27.1
9 | Cc1ccc(/C=C2\SC(=O)N(Cc3ccc(C)cc3)C2=O)cc1 |  |  |  | 16.3 |  | 41.7 |  |  |  | 
10 | Cc1ccc(CN2C(=O)S/C(=C\c3ccc([N+](=O)[O-])cc3)C2=O)cc1 |  |  | 7.1 |  | 11.42 |  |  |  |  | 
11 | CN(CCOc1ccc(CC2SC(=O)NC2=O)cc1)c1ccccn1 (stereo not drawn) [ROSIGLITAZONE] | 26.3 | 15.9 | 6.4 | 36.7 | 11.6 | 43.3 |  |  |  | 
